Measurements taken from the NIST ThermoML archive (doi:10.1016/j.fluid.2005.03.019).

Tests used:
[1] = Liquid
[2] = refractive index (Na D-line) (dimensionless); details: 293.1 K; 101.33 kPa; Liquid; Standard Abbe refractometry

CC(C)COC(=O)C1CCCCC1C(=O)OCC(C)C (stereo unspecified) [diisobutyl hexahydrophthalate]
[1]
Details | vapor or sublimation pressure [kPa]
434.4 K | 0.732
448.2 K | 1.539
463.3 K | 2.912
478.7 K | 4.813
486.4 K | 6.342
491.5 K | 7.672
500.3 K | 10.2
506.6 K | 12.5
509.6 K | 13.99
515 K | 16.31
519.5 K | 18.67
524.1 K | 21.3
527.8 K | 23.69
534.8 K | 28.61
538.2 K | 30.94

Details | refractive index
[2] | 1.453
